The compounds below were run against unphosphorylated-BTK kinase domain (UP-BTK), GST-tagged human BTK (389-659aa) (Homo sapiens (Human), UniProt Q06187) (assay: BTK Kinase Lanthascreen Binding Assay). Details: Lanthascreen binding, 60 minutes incubation; pIC50 = negative log of the IC50 in molar.
Experimental: BTK Kinase Lanthascreen Binding Assay:
A BTK kinase lanthascreen binding assay monitors compound binding to unphosphorylated-BTK kinase domain (UP-BTK), by competing with a fluorescent labeled tracer. […] Data were analyzed using Xlfit™ version 5.3 from ID Business Solutions (Guildford), Microsoft Excel add-in. pIC50 refers to the negative log of the IC50 in molar.

unphosphorylated-BTK kinase domain (UP-BTK), GST-tagged human BTK (389-659aa), sequence (Q06187 389-659): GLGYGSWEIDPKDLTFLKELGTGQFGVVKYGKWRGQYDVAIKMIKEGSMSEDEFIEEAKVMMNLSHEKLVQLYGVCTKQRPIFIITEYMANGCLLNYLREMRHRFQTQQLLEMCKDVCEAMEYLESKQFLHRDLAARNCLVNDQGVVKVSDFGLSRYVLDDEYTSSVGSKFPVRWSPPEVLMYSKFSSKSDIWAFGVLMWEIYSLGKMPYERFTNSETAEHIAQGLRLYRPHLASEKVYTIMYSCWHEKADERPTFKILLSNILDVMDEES

| BTK_I_binding pIC50 | SMILES |
| --- | --- |
| 7.72 | CC(=O)NC1CCC[C@@H](NC(=O)c2sc3nccc4c3c2NC(=O)N4c2cnc(Oc3ccccc3)cc2C)C1 (single isomer, unassigned) [Example 422, N-((1R,3R)-3-Acetamidocyclohexyl)-5-(*S)-(4-methyl-6-phenoxypyridin-3-yl)-4-oxo-4,5-dihydro-3H-1-thia-3,5,8-triazaacenaphthylene-2-carboxamide] |
| 7.75 | CCC(=O)NC1CCC[C@@H](NC(=O)c2sc3nccc4c3c2NC(=O)N4c2cnc(Oc3ccccc3)cc2C)C1 (single isomer, unassigned) [Example 423, 5-(*S)-(4-Methyl-6-phenoxypyridin-3-yl)-4-oxo-N-((1R,3R)-3-propionamidocyclohexyl)-4,5-dihydro-3H-1-thia-3,5,8-triazaacenaphthylene-2-carboxamide] |
| 7.76 | C=CC(=O)N[C@H]1CCC[C@H]1NC(=O)c1sc2nccc3c2c1NC(=O)N3c1ccc(Oc2cccnn2)cc1C (single isomer, unassigned) [Example 424, N-((1R,2S)-2-Acrylamidocyclopentyl)-5-(*S)-(2-methyl-4-(pyridazin-3-yloxy)phenyl)-4-oxo-4,5-dihydro-3H-1-thia-3,5,8-triazaacenaphthylene-2-carboxamide] |
| 6.67 | C=CC(=O)N[C@H]1CCC[C@H]1NC(=O)c1sc2nccc3c2c1NC(=O)N3c1ccc(Oc2cccnn2)cc1C (single isomer, unassigned) [Example 425, N-((1R,2S)-2-Acrylamidocyclopentyl)-5-(*R)-(2-methyl-4-(pyridazin-3-yloxy)phenyl)-4-oxo-4,5-dihydro-3H-1-thia-3,5,8-triazaacenaphthylene-2-carboxamide] |
| 8.20 | C=CC(=O)N[C@H]1CCC[C@H]1NC(=O)c1sc2nccc3c2c1NC(=O)N3c1cnc(OC(C)C)cc1C (single isomer, unassigned) [Example 426, N-((1R,2S)-2-Acrylamidocyclopentyl)-5-(*S)-(6-isopropoxy-4-methylpyridin-3-yl)-4-oxo-4,5-dihydro-3H-1-thia-3,5,8-triazaacenaphthylene-2-carboxamide] |
| 7.88 | C=CC(=O)N[C@H]1CC[C@@H](NC(=O)c2sc3nccc4c3c2NC(=O)N4c2cnc(OC(C)C)cc2C)C1 (single isomer, unassigned) [Example 427, N-((1R,3S)-3-Acrylamidocyclopentyl)-5-(*S)-(6-isopropoxy-4-methylpyridin-3-yl)-4-oxo-4,5-dihydro-3H-1-thia-3,5,8-triazaacenaphthylene-2-carboxamide] |
| 6.67 | Cc1cc(OC(C)C)ncc1N1C(=O)Nc2c(C(=O)N[C@@H]3CCC[C@@H]3N)sc3nccc1c23 (single isomer, unassigned) [Example 428, N-((1R,2S)-2-Aminocyclopentyl)-5-(*S)-(6-isopropoxy-4-methylpyridin-3-yl)-4-oxo-4,5-dihydro-3H-1-thia-3,5,8-triazaacenaphthylene-2-carboxamide] |
| 8.17 | C=CC(=O)N[C@@H]1CC[C@H](NC(=O)c2sc3nccc4c3c2NC(=O)N4c2cnc(Oc3ccccc3)cc2C)C1 (single isomer, unassigned) [Example 430, N-((1S,3R)-3-Acrylamidocyclopentyl)-5-(*S)-(4-methyl-6-phenoxypyridin-3-yl)-4-oxo-4,5-dihydro-3H-1-thia-3,5,8-triazaacenaphthylene-2-carboxamide] |
| 6.68 | Cc1cc(Oc2ccccc2)ncc1N1C(=O)Nc2c(C(=O)N[C@H]3CC[C@@H](N)C3)sc3nccc1c23 (single isomer, unassigned) [Example 431, N-((1S,3R)-3-Aminocyclopentyl)-5-(*S)-(4-methyl-6-phenoxypyridin-3-yl)-4-oxo-4,5-dihydro-3H-1-thia-3,5,8-triazaacenaphthylene-2-carboxamide] |
| 7.53 | C=CC(=O)N[C@@H]1CCCC[C@H]1NC(=O)c1sc2nccc3c2c1NC(=O)N3c1ccc(Oc2ccccc2)cc1C (single isomer, unassigned) [Example 439, N-((1R,2R)-2-Acrylamidocyclohexyl)-5-(*S)-(2-methyl-4-phenoxyphenyl)-4-oxo-4,5-dihydro-3H-1-thia-3,5,8-triazaacenaphthylene-2-carboxamide] |
| 7.07 | Cc1cc(Oc2ccccc2)ccc1N1C(=O)Nc2c(C(=O)N[C@@H]3CCCC[C@H]3N)sc3nccc1c23 (single isomer, unassigned) [Example 440, N-((1R,2R)-2-aminocyclohexyl)-5-(*S)-(2-methyl-4-phenoxyphenyl)-4-oxo-4,5-dihydro-3H-1-thia-3,5,8-triazaacenaphthylene-2-carboxamide] |
| 7.01 | Cc1cc(Oc2ccccc2)ccc1N1C(=O)Nc2c(C(=O)N[C@@H]3CCCC[C@H]3NC(=O)CN)sc3nccc1c23 (single isomer, unassigned) [Example 441, N-((1R,2R)-2-(2-Aminoacetamido)cyclohexyl)-5-(*S)-(2-methyl-4-phenoxyphenyl)-4-oxo-4,5-dihydro-3H-1-thia-3,5,8-triazaacenaphthylene-2-carboxamide] |
| 6.74 | CNCC(=O)N[C@@H]1CCCC[C@@H]1NC(=O)c1sc2nccc3c2c1NC(=O)N3c1ccc(Oc2ccccc2)cc1C (single isomer, unassigned) [Example 443, 5-(*S)-(2-Methyl-4-phenoxyphenyl)-N-((1S,2R)-2-(2-(methylamino)acetamido)cyclohexyl)-4-oxo-4,5-dihydro-3H-1-thia-3,5,8-triazaacenaphthylene-2-carboxamide] |
| 6.73 | Cc1cc(Oc2ccccc2)ccc1N1C(=O)Nc2c(C(=O)N[C@H]3CCCC[C@H]3NC(=O)CN)sc3nccc1c23 (single isomer, unassigned) [Example 444, N-((1S,2R)-2-(2-Aminoacetamido)cyclohexyl)-5-(*S)-(2-methyl-4-phenoxyphenyl)-4-oxo-4,5-dihydro-3H-1-thia-3,5,8-triazaacenaphthylene-2-carboxamide] |

Same assay, conditions: read-out: BTK_I_binding pIC50 (converted)

| IC50 [nM] | SMILES |
| --- | --- |
| > 1000 | CCC(=O)N[C@H]1CC[C@H](NC(=O)c2sc3nccc4c3c2NC(=O)N4c2ccc(Oc3ccccc3)nc2C)C1 (single isomer, unassigned) [Example 409, 5-(*S)-(2-Methyl-6-phenoxypyridin-3-yl)-4-oxo-N-((1S,3S)-3-propionamidocyclopentyl)-4,5-dihydro-3H-1-thia-3,5,8-triazaacenaphthylene-2-carboxamide] |
| > 1000 | CC(=O)N[C@H]1CC[C@H](NC(=O)c2sc3nccc4c3c2NC(=O)N4c2ccc(Oc3ccccc3)nc2C)C1 (single isomer, unassigned) [Example 410, N-((1S,3S)-3-Acetamidocyclopentyl)-5-(*S)-(2-methyl-6-phenoxypyridin-3-yl)-4-oxo-4,5-dihydro-3H-1-thia-3,5,8-triazaacenaphthylene-2-carboxamide] |
| > 1000 | C=CC(=O)N[C@@H]1CCC[C@H](NC(=O)c2sc3nccc4c3c2NC(=O)N4c2ccc(Oc3ccccc3)nc2C)C1 (single isomer, unassigned) [Example 411, N-((1S,3R)-3-Acrylamidocyclohexyl)-5-(*S)-(2-methyl-6-phenoxypyridin-3-yl)-4-oxo-4,5-dihydro-3H-1-thia-3,5,8-triazaacenaphthylene-2-carboxamide] |
| > 1000 | CCC(=O)N[C@@H]1CCC[C@H](NC(=O)c2sc3nccc4c3c2NC(=O)N4c2ccc(Oc3ccccc3)nc2C)C1 (single isomer, unassigned) [Example 412, 5-(*S)-(2-Methyl-6-phenoxypyridin-3-yl)-4-oxo-N-((1S,3R)-3-propionamidocyclohexyl)-4,5-dihydro-3H-1-thia-3,5,8-triazaacenaphthylene-2-carboxamide] |
| > 1000 | CC(=O)N[C@@H]1CCC[C@H](NC(=O)c2sc3nccc4c3c2NC(=O)N4c2ccc(Oc3ccccc3)nc2C)C1 (single isomer, unassigned) [Example 413, N-((1S,3R)-3-Acetamidocyclohexyl)-5-(*S)-(2-methyl-6-phenoxypyridin-3-yl)-4-oxo-4,5-dihydro-3H-1-thia-3,5,8-triazaacenaphthylene-2-carboxamide] |
| > 1000 | Cc1nc(Oc2ccccc2)ccc1N1C(=O)Nc2c(C(=O)N[C@H]3CCC[C@@H](N)C3)sc3nccc1c23 (single isomer, unassigned) [Example 414, N-((1S,3R)-3-Aminocyclohexyl)-5-(*S)-(2-methyl-6-phenoxypyridin-3-yl)-4-oxo-4,5-dihydro-3H-1-thia-3,5,8-triazaacenaphthylene-2-carboxamide] |
| > 1000 | Cc1nc(Oc2ccccc2)ccc1N1C(=O)Nc2c(C(=O)N[C@H]3CC[C@H](N)C3)sc3nccc1c23 (single isomer, unassigned) [Example 415, N-((1S,3S)-3-Aminocyclopentyl)-5-(*S)-(2-methyl-6-phenoxypyridin-3-yl)-4-oxo-4,5-dihydro-3H-1-thia-3,5,8-triazaacenaphthylene-2-carboxamide] |
| > 1000 | CCC(=O)N[C@H]1CCC[C@H](NC(=O)c2sc3nccc4c3c2NC(=O)N4c2cnc(Oc3ccccc3)cc2C)C1 (single isomer, unassigned) [Example 416, 5-(*S)-(4-Methyl-6-phenoxypyridin-3-yl)-4-oxo-N-((1S,3R)-3-propionamidocyclohexyl)-4,5-dihydro-3H-1-thia-3,5,8-triazaacenaphthylene-2-carboxamide] |
| > 1000 | Cc1cc(OC(C)C)ncc1N1C(=O)Nc2c(C(=O)N[C@@H]3CC[C@H](N)C3)sc3nccc1c23 (single isomer, unassigned) [Example 429, N-((1R,3S)-3-Aminocyclopentyl)-5-(*S)-(6-isopropoxy-4-methylpyridin-3-yl)-4-oxo-4,5-dihydro-3H-1-thia-3,5,8-triazaacenaphthylene-2-carboxamide] |

Source: patent US10934310B2, “Inhibitors of Bruton's tyrosine kinase and method of their use” (JANSSEN PHARMACEUTICA NV, priority 2015, dated 2021)
